Laboratory results taken from US9050341B2, “Methods of treating drug resistant and other tumors by administering 6,7-dialkoxy quinazoline derivatives” (NATCO PHARMA LIMITED, priority 2009, dated 2015).

Tests used:
Assay in all cases: KinomeScan kinase profiling
Assay type in all cases: binding
TIE2 = target: T1, TIE2 (Homo sapiens, UniProt Q02763)
T1 construct: purchased Ambit Biosciences Corp (KinomeScan); host or cells: E. coli host derived from the BL21 strain (T7 phage lysate)
Outline: (§1)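 Kinases were expressed as T7 phage fusions in a BL21-derived E. coli host and the cleared lysates were used. Ligand beads were blocked with biotin and buffer (1% BSA, 0.05% Tween 20, 1 mM DTT). Compounds came from 40× DMSO stocks, and phage in the eluates was titred by qPCR.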

JNK2 = target: T2, JNK2 (Homo sapiens, UniProt P45984)
T2 construct: host or cells: T7 phage in E. coli host derived from BL21
T2 sequence (P45984 whole entry): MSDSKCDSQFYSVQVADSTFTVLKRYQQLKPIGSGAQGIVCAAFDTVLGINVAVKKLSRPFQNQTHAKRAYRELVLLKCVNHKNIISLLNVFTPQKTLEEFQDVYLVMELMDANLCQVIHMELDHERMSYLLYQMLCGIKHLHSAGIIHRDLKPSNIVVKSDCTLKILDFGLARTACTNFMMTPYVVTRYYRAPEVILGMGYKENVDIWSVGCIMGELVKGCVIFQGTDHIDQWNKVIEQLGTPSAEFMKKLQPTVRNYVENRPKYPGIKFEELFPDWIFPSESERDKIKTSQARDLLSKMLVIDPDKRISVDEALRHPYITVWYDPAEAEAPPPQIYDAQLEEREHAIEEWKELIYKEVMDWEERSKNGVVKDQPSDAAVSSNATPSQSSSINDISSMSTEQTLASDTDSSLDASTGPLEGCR
Outline: as §1

NDR2 = target: T3, NDR2 (Homo sapiens, UniProt Q9Y2H1)
T3 construct: host or cells: T7 phage in E. coli host derived from BL21
Outline: as §1

PIK3C2B = target: T4, PIK3C2B (Homo sapiens, UniProt O00750)
T4 construct: host or cells: E. coli host derived from the BL21 strain, infected with T7 phage
Outline: as §1

BRSK1 = target: T5, BRSK1 (Homo sapiens, UniProt Q8TDC3)
T5 construct: purchased Ambit Biosciences Corp (KinomeScan); host or cells: E. coli host derived from the BL21 strain, T7 phage
T5 sequence (Q8TDC3 whole entry): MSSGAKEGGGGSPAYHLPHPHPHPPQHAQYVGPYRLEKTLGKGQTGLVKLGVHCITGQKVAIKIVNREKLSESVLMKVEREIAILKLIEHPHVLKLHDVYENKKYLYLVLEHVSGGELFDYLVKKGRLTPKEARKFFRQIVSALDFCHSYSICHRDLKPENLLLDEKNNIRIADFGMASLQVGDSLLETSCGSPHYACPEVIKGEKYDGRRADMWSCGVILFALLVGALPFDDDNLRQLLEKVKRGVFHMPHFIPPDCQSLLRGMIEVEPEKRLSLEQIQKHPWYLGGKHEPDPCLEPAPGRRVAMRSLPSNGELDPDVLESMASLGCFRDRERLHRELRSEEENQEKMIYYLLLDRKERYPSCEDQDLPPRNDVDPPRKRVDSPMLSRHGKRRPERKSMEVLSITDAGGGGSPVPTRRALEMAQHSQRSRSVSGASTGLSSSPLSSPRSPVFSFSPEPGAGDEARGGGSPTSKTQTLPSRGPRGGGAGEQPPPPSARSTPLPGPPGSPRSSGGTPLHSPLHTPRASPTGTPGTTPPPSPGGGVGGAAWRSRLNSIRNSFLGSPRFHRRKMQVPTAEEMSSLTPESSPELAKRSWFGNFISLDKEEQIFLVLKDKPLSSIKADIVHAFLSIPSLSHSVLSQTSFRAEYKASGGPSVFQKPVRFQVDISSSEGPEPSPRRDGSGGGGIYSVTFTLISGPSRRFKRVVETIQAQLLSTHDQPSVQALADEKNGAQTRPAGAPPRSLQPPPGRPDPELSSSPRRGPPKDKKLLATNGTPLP
Outline: as §1

CDK8 = target: T6, CDK8 (Homo sapiens, UniProt P49336)
T6 construct: host or cells: T7 phage in E. coli (BL21-derived)
Outline: as §1

ABL1 (H396P) = target: T7, ABL1 (H396P) (Homo sapiens, UniProt P00519, H396P)
T7 construct: host or cells: E. coli host derived from BL21 (T7 phage lysate)
Outline: as §1

CSNK1G1 = target: T8, CSNK1G1 (Homo sapiens, UniProt Q9HCP0)
T8 construct: purchased Ambit Biosciences Corp (KinomeScan); host or cells: T7 phage in E. coli host derived from BL21
T8 sequence (Q9HCP0 whole entry): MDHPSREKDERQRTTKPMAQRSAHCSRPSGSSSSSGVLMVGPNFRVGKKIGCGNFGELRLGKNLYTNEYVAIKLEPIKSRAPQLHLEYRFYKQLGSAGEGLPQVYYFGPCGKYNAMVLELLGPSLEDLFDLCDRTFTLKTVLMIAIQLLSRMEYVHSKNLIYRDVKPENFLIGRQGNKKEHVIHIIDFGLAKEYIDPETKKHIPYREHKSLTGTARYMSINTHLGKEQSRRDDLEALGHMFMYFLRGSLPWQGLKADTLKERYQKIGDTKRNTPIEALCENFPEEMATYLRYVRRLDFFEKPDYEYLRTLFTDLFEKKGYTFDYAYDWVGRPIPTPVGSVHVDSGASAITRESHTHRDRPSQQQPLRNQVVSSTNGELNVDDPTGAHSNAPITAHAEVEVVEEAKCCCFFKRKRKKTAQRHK
Outline: as §1

CSNK1G2 = target: T9, CSNK1G2 (Homo sapiens, UniProt P78368)
T9 construct: purchased Ambit Biosciences Corp (KinomeScan); host or cells: T7 phage in E. coli host derived from BL21
Outline: as §1

NEK5 = target: T10, NEK5 (Homo sapiens, UniProt Q6P3R8)
T10 construct: host or cells: T7 phage in E. coli host derived from BL21
Outline: as §1

PRKG1 = target: T11, PRKG1 (Homo sapiens, UniProt Q13976)
T11 construct: purchased Ambit Biosciences Corp (KinomeScan); host or cells: E. coli host derived from BL21, infected with T7 phage
Outline: as §1

RET = target: T12, RET (Homo sapiens, UniProt P07949)
T12 construct: host or cells: E. coli host derived from BL21, T7 phage lysate
Outline: as §1

FYN = target: T13, FYN (Homo sapiens, UniProt P06241)
T13 construct: host or cells: E. coli host derived from BL21, infected with T7 phage
Outline: as §1

GCN2 (Kin.Dom.2.S808G) = target: T14, GCN2 (Kin.Dom.2.S808G) (Homo sapiens, UniProt Q9P2K8, S808G)
T14 construct: GCN2(KIN.DOM.2, S808G); host or cells: E. coli host derived from BL21, infected with T7 phage
Outline: as §1

MST1R = target: T15, MST1R (Homo sapiens, UniProt Q04912)
T15 construct: host or cells: T7 phage in E. coli host derived from BL21
T15 sequence (Q04912 25-1400): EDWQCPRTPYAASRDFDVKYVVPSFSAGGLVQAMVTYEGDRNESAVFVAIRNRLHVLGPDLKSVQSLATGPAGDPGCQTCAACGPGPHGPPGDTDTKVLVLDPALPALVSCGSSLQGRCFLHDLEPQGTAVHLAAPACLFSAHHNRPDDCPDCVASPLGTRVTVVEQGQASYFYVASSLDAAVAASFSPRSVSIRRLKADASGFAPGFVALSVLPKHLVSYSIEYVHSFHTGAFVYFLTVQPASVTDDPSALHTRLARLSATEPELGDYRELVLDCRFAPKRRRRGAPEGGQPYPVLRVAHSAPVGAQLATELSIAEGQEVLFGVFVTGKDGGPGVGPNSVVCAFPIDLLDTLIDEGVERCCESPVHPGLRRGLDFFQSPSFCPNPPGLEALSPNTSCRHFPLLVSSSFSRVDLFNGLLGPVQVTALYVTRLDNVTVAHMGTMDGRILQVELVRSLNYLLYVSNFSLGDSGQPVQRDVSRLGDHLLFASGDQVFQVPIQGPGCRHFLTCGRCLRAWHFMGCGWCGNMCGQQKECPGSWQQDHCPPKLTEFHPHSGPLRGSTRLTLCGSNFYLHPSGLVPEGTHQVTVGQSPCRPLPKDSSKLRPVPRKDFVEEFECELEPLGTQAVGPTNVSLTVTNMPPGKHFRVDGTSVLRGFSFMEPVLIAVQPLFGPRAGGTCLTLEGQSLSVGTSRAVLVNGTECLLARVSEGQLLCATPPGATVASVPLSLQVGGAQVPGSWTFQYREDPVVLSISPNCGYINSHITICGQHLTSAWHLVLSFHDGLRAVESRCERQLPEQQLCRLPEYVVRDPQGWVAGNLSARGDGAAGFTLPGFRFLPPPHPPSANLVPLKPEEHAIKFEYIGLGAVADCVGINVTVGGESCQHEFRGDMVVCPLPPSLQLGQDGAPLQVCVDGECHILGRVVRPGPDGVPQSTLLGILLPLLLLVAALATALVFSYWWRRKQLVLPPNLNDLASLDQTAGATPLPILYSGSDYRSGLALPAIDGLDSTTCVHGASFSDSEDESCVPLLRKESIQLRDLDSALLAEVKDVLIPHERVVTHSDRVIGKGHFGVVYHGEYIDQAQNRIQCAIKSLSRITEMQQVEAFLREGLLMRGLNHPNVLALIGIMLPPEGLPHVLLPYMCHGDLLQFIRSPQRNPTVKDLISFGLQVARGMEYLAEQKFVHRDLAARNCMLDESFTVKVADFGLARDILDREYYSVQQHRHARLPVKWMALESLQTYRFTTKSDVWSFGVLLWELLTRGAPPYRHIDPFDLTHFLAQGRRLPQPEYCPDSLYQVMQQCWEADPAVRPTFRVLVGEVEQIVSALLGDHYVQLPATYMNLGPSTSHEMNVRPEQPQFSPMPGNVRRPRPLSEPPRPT
Outline: as §1

EPHB1 = target: T16, EPHB1 (Homo sapiens, UniProt P54762)
T16 construct: host or cells: E. coli host derived from BL21, T7 phage lysate
Outline: as §1

LCK = target: T17, LCK (Homo sapiens, UniProt P06239)
T17 construct: host or cells: T7 phage in E. coli host derived from BL21
Outline: as §1

MERTK = target: T18, MERTK (Homo sapiens, UniProt Q12866)
T18 construct: host or cells: E. coli derived from BL21, infected with T7 phage
T18 sequence (Q12866 21-999): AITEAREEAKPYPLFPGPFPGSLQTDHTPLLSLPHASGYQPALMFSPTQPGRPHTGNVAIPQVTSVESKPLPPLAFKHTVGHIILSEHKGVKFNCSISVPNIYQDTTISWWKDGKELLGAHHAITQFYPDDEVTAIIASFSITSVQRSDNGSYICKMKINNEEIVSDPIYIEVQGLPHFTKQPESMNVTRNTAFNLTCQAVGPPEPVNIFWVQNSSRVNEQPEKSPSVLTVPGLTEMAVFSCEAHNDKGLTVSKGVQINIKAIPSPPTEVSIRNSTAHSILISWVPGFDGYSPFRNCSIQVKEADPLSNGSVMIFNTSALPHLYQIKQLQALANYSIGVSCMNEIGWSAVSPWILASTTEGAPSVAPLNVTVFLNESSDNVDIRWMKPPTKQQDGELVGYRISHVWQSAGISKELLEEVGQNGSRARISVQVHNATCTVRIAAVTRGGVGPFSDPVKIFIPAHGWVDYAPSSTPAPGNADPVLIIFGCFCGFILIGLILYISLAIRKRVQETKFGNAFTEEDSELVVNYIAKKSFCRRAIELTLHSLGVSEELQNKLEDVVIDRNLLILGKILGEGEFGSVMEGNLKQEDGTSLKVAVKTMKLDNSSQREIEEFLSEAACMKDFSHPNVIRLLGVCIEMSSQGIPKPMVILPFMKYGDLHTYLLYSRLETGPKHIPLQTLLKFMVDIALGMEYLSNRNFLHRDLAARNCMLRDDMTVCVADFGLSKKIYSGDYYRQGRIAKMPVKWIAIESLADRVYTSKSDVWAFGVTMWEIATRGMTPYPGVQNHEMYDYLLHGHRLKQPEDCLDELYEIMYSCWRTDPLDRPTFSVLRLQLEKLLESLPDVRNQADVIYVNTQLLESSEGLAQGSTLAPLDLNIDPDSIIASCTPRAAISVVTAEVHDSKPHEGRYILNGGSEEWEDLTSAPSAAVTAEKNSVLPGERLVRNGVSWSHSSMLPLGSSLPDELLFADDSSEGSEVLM
Outline: as §1

MARK2 = target: T19, MARK2 (Homo sapiens, UniProt Q7KZI7)
T19 construct: host or cells: E. coli derived from BL21, infected with T7 phage
Outline: as §1

VEGFR2 = target: T20, VEGFR2 (Homo sapiens, UniProt P35968)
T20 construct: purchased Ambit Biosciences Corp (KinomeScan); host or cells: E. coli host derived from the BL21 strain (T7 phage lysate)
Outline: as §1

MAP3K3 = target: T21, MAP3K3 (Homo sapiens, UniProt Q99759)
T21 construct: host or cells: E. coli derived from BL21, infected with T7 phage
Outline: as §1

EGFR (S752-1759del) = target: T22, EGFR (S752-1759del) (Homo sapiens, UniProt P00533, DEL752-759)
T22 construct: host or cells: E. coli host derived from BL21, T7 phage lysate
Outline: as §1

T1 sequence (Q02763 23-1124): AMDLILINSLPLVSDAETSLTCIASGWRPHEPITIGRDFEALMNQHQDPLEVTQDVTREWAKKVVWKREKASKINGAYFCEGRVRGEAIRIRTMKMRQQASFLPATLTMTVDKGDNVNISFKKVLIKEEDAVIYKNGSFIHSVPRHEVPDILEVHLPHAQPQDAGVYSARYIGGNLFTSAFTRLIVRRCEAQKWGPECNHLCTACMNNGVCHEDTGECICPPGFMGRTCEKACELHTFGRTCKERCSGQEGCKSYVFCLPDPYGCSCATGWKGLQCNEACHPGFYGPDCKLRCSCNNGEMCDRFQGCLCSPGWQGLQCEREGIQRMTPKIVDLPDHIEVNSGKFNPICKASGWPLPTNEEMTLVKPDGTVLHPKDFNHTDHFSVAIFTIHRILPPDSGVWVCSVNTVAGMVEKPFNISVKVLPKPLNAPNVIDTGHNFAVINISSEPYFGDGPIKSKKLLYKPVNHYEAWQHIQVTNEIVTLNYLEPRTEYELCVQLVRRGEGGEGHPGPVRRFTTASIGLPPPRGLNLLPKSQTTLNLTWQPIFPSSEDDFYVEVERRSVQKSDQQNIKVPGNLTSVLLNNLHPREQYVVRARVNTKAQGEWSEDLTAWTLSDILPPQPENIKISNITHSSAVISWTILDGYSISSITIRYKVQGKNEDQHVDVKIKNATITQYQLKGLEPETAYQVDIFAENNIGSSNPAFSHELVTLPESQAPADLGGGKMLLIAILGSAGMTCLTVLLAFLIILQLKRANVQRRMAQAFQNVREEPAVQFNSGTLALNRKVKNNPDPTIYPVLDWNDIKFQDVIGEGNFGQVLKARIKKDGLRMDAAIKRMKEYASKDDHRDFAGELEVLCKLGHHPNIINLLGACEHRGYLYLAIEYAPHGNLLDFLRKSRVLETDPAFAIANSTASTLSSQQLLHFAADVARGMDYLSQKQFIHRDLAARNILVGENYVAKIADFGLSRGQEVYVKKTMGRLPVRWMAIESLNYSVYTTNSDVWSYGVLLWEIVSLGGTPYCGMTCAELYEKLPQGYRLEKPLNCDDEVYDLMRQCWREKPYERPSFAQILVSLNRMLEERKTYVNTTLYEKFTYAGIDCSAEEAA

SMILES: C#Cc1cccc(Nc2ncnc3cc(OC)c(OCCCN4CCOCC4)cc23)c1 [NRC-2694, N-(3-ethylnylphenyl)-7-methoxy-6-[3-(4-morpholinyl)propoxy]-4-quinazolinamine]
- % Ctrl @ 10000 nM (TIE2): 76 % Ctrl
- % Ctrl @ 10000 nM (JNK2): 95 % Ctrl
- % Ctrl @ 10000 nM (NDR2): 74 % Ctrl
- % Ctrl @ 10000 nM (PIK3C2B): 93 % Ctrl
- % Ctrl @ 10000 nM (BRSK1): 53 % Ctrl
- % Ctrl @ 10000 nM (CDK8): 100 % Ctrl
- % Ctrl @ 10000 nM (ABL1 (H396P)): 34 % Ctrl
- % Ctrl @ 10000 nM (CSNK1G1): 55 % Ctrl
- % Ctrl @ 10000 nM (CSNK1G2): 76 % Ctrl
- % Ctrl @ 10000 nM (NEK5): 94 % Ctrl
- % Ctrl @ 10000 nM (PRKG1): 75 % Ctrl
- % Ctrl @ 10000 nM (RET): 65 % Ctrl
- % Ctrl @ 10000 nM (FYN): 41 % Ctrl
- % Ctrl @ 10000 nM (GCN2 (Kin.Dom.2.S808G)): 12 % Ctrl
- % Ctrl @ 10000 nM (MST1R): 94 % Ctrl
- % Ctrl @ 10000 nM (EPHB1): 72 % Ctrl
- % Ctrl @ 10000 nM (LCK): 1.5 % Ctrl
- % Ctrl @ 10000 nM (MERTK): 48 % Ctrl
- % Ctrl @ 10000 nM (MARK2): 70 % Ctrl
- % Ctrl @ 10000 nM (VEGFR2): 95 % Ctrl
- % Ctrl @ 10000 nM (MAP3K3): 5.9 % Ctrl
- % Ctrl @ 10000 nM (EGFR (S752-1759del)): 0 % Ctrl
